In ChEMBL document CHEMBL3414474, “Design and synthesis of piperidine derivatives as novel human heat shock protein 70 inhibitors for the treatment of drug-resistant tumors” (Eur J Med Chem, 2015):
Activity calls are given as the source filed them. The calls are words filed in the database; no cut-off is given here.

How the values were obtained:
[1] = tested on: COLO 205; assay: Growth inhibition of human COLO205 cells at 0.016 to 4 uM incubated for 72 hrs by ATP detection based luminescent assay; type: functional, cell-based
[2] = tested on: MDA-MB-453; assay: Growth inhibition of human MDA-MB-453 cells at 5 uM incubated for 72 hrs by ATP detection based luminescent assay; type: functional; conditions: MDA-MB-453, 72 h, read-out: GI
[3] = tested on: BGC-823; assay: Growth inhibition of human BGC823 cells at 0.016 to 4 uM incubated for 72 hrs by ATP detection based luminescent assay; type: functional, cell-based
[4] = Growth inhibition of human SKBR3 cells at 5 uM incubated for 72 hrs by ATP detection based luminescent assay; type: functional; conditions: SK-BR-3, 72 h, read-out: GI
[5] = tested on: ASPC1; assay: Growth inhibition of human AsPC1 cells at 0.016 to 4 uM incubated for 72 hrs by ATP detection based luminescent assay; type: functional, cell-based
[6] = tested on: Mus musculus; assay: Acute toxicity in male KM mouse assessed as mouse mortality at 1555 mg/kg dosed as single oral gavage measured after 5 mins during day 1 to day 14 post dose; type: organism-based; set-up: dose 1555 mg/kg, route oral; conditions: in vivo
[7] = species on record: Homo sapiens; assay: Inhibition of HSP70 (unknown origin) at 200 uM pre-incubated for 30 mins followed by ATP addiction and measured after 3 hrs by malachite green reagent based colorimetric assay
[8] = tested on: Mus musculus; assay: Acute toxicity in female KM mouse assessed as induction of organ abnormalities mortality at 520 to 1555 mg/kg dosed as single oral gavage measured during day 1 to day 14 post dose; type: organism-based; set-up: dose 520-1555 mg/kg, route oral; conditions: in vivo
[9] = tested on: NCI-N87; assay: Growth inhibition of human NCI-N87 cells at 0.016 to 4 uM incubated for 72 hrs by ATP detection based luminescent assay; type: functional, cell-based
[10] = Growth inhibition of human BT/LapR1.0 cells at 5 uM incubated for 72 hrs by ATP detection based luminescent assay; type: functional; conditions: read-out: GI
[11] = tested on: Huh-7; assay: Growth inhibition of human HuH7 cells at 0.016 to 4 uM incubated for 72 hrs by ATP detection based luminescent assay; type: functional, cell-based
[12] = tested on: Mus musculus; assay: Acute toxicity in male KM mouse assessed as mouse mortality at 520 mg/kg dosed as single oral gavage measured during day 1 to day 14 post dose; type: organism-based; set-up: dose 520 mg/kg, route oral; conditions: in vivo
[13] = Growth inhibition of human WI38 cells at 0.016 to 4 uM incubated for 72 hrs by ATP detection based luminescent assay; type: cell-based; conditions: wi-38, 72 h
[14] = tested on: Mus musculus; assay: Acute toxicity in male KM mouse assessed as induction of organ abnormalities mortality at 520 to 1555 mg/kg dosed as single oral gavage measured during day 1 to day 14 post dose; type: organism-based; set-up: dose 520-1555 mg/kg, route oral; conditions: in vivo
[15] = tested on: A549; assay: Growth inhibition of human A549 cells at 0.016 to 4 uM incubated for 72 hrs by ATP detection based luminescent assay; type: functional, cell-based
[16] = Binding affinity to human HSP70 at 25 degC by surface plasmon resonance assay
[17] = tested on: HepG2; assay: Growth inhibition of human HepG2 cells at 0.016 to 4 uM incubated for 72 hrs by ATP detection based luminescent assay; type: functional, cell-based
[18] = tested on: HT-29; assay: Growth inhibition of human HT-29 cells at 0.016 to 4 uM incubated for 72 hrs by ATP detection based luminescent assay; type: functional, cell-based
[19] = tested on: Mus musculus; assay: Acute toxicity in female KM mouse assessed as mouse mortality at 1555 mg/kg dosed as single oral gavage measured after 5 mins during day 1 to day 14 post dose; type: organism-based; set-up: dose 1555 mg/kg, route oral; conditions: in vivo
[20] = tested on: MDA-MB-361; assay: Growth inhibition of human MDA-MB-361 cells at 5 uM incubated for 72 hrs by ATP detection based luminescent assay; type: functional; conditions: MDA-MB-361, 72 h, read-out: GI
[21] = Growth inhibition of human SK/LapR1.0 cells at 5 uM incubated for 72 hrs by ATP detection based luminescent assay; type: functional; conditions: read-out: GI
[22] = tested on: Mus musculus; assay: Acute toxicity in female KM mouse assessed as mouse mortality at 625 mg/kg dosed as single oral gavage measured during day 1 to day 14 post dose; type: organism-based; set-up: dose 625 mg/kg, route oral; conditions: in vivo
[23] = tested on: Mus musculus; assay: Acute toxicity in female KM mouse assessed as mouse mortality at 520 mg/kg dosed as single oral gavage measured during day 1 to day 14 post dose; type: organism-based; set-up: dose 520 mg/kg, route oral; conditions: in vivo
[24] = Growth inhibition of human BT/LapR1.0 cells incubated for 72 hrs by ATP detection based luminescent assay; type: functional
[25] = Growth inhibition of human BT474 cells incubated for 72 hrs by ATP detection based luminescent assay; type: functional, cell-based; conditions: BT-474, 72 h
[26] = tested on: MRC5; assay: Growth inhibition of human MRC5 cells at 0.016 to 4 uM incubated for 72 hrs by ATP detection based luminescent assay; type: cell-based; conditions: mrc5, 72 h
[27] = tested on: Mus musculus; assay: Acute toxicity in male KM mouse assessed as mouse mortality at 1080 mg/kg dosed as single oral gavage measured during day 1 to day 14 post dose; type: organism-based; set-up: dose 1080 mg/kg, route oral; conditions: in vivo
[28] = tested on: NCI-H460; assay: Growth inhibition of human H460 cells at 0.016 to 4 uM incubated for 72 hrs by ATP detection based luminescent assay; type: functional, cell-based
[29] = Growth inhibition of human BT474 cells at 5 uM incubated for 72 hrs by ATP detection based luminescent assay; type: functional; conditions: BT-474, 72 h, read-out: GI
[30] = tested on: Mus musculus; assay: Acute toxicity in female KM mouse assessed as mouse mortality at 1296 mg/kg dosed as single oral gavage measured during day 1 to day 14 post dose; type: organism-based; set-up: dose 1296 mg/kg, route oral; conditions: in vivo
[31] = tested on: MIA PaCa-2; assay: Growth inhibition of human MIAPaCa2 cells at 0.016 to 4 uM incubated for 72 hrs by ATP detection based luminescent assay; type: functional, cell-based

## CSc1nccc(N2CCC(N(C)Cc3ccc(C#N)cc3)CC2)n1
[1]
  growth inhibition (GI): Active
[2]
  inhibition of growth at 5 µM: 82.4%
[3]
  growth inhibition (GI): Active
[4]
  inhibition of growth at 5 µM: 83.4%
[5]
  growth inhibition (GI): Active
[6]
  Activity: Toxic
[7]
  inhibition: 8.14%
[8]
  Activity: Non-toxic
[9]
  growth inhibition (GI): Active
[10]
  inhibition of growth at 5 µM: 76.2%
[11]
  growth inhibition (GI): Active
[12]
  Activity: Non-toxic
[13]
  growth inhibition (GI): Non-toxic
[14]
  Activity: Non-toxic
[15]
  growth inhibition (GI): Active
[16]
  Kd: 246 nM
[17]
  growth inhibition (GI): Active
[18]
  growth inhibition (GI): Active
[19]
  Activity: Toxic
[20]
  inhibition of growth at 5 µM: 46.9%
[21]
  inhibition of growth at 5 µM: 86.1%
[22]
  Activity: Non-toxic
[23]
  Activity: Non-toxic
[24]
  IC50: 1470 nM
[25]
  IC50: 1410 nM
[26]
  growth inhibition (GI): Non-toxic
[27]
  Activity: Toxic
[28]
  growth inhibition (GI): Active
[29]
  inhibition of growth at 5 µM: 75.5%
[30]
  Activity: Toxic
[31]
  growth inhibition (GI): Active
